According to patent US20060178387A1, “Combined treatment with capecitabine and an epidermal growth factor receptor kinase inhibitor” (priority 2005, published 2006):

Experiments:
[1] = test system: KPL-4 (human inflammatory breast cancer) cells; assay: Tumor-growth inhibition in vivo, KPL-4 orthotopic xenograft in BALB/c nu/nu mice
Description: (§1) Suspensions of LoVo (5×10^6 cells/mouse), HT-29 (5 x 10^6 cells/mouse) and A431 (8×10^6 cells/mouse) cells were inoculated s.c. into the right flank of the mice. A piece of MAXF401 was transplanted s.c. into the right flank of female mice. A suspension of KPL-4 cells (1×10^7 cells/mouse) was orthotopically transplanted into the second mammary fat pad of female mice. Several weeks after tumor inoculation, mice were selected and randomized into control and treatment groups. Experiments were started when tumor volumes reached approximately 0.1-0.3 cm^3. […] The tumor volumes were estimated using the equation V=ab^2/2, where a and b are tumor length and width, respectively. Gastrointestinal (GI) toxicity was estimated by observing the feces and by detecting fecal occult blood using a test kit (Shionogi Pharma Co., Osaka, Japan). Peripheral blood leukocyte counts were performed to evaluate bone marrow toxicity.

[2] = test system: LoVo (human colon cancer) cells; assay: Tumor-growth inhibition in vivo, LoVo xenograft in BALB/c nu/nu mice; settings: for tumor-growth inhibition: LoVo; for tumor inhibition rate: day 15, after 14 days' treatment
Description: as §1

[3] = Tolerability (body weight, deaths, MTD) in tumor-bearing mice; type: in vivo, BALB/c nu/nu mice; settings: for lethality: erlotinib 250 mg/kg/day; for toxic deaths: erlotinib 50-125 mg/kg/day for 2 weeks
Description: Male and female, 4-6-weeks old BALB/c nu/nu mice were obtained from Nippon Clea (Tokyo, Japan). All animals were allowed to acclimatize and recover from shipping-related stress for 1 week prior to the study. The health of the mice was monitored daily by observation.

[4] = test system: A-431 (human vulval epidermal cancer) cells; assay: Tumor-growth inhibition in vivo, A-431 xenograft in BALB/c nu/nu mice; settings: erlotinib 100 mg/kg/day (80% of MTD) orally once daily for 14 days
Description: as §1

[5] = test system: MAXF401 (human breast cancer) cells; assay: Tumor-growth inhibition in vivo, MAXF401 xenograft in BALB/c nu/nu mice; settings: erlotinib 100 mg/kg/day orally once daily for two weeks, day 15
Description: as §1

[6] = test system: HT-29 (human colon cancer) cells; assay: Tumor-growth inhibition in vivo, HT-29 xenograft in BALB/c nu/nu mice; settings: erlotinib 100 mg/kg/day orally once daily for two weeks, day 15
Description: as §1

[7] = erlotinib 100 mg/kg/day (80% of MTD) orally once daily for 14 days, day 15
[8] = erlotinib 100 mg/kg/day (80% of MTD) orally once daily for 14 days, day 15, listed as erlotinib

SMILES: CCCCCOC(=O)Nc1nc(=O)n([C@@H]2O[C@H](C)[C@@H](O)[C@H]2O)cc1F [Capecitabine, capecitabine]
- tumor-growth inhibition ([1]; capecitabine 90 mg/kg (67% of MTD for this model) orally once daily for 14 days, day 15): 36%
- tumor-growth inhibition ([2]; capecitabine at the MTD, 539 mg/kg): 56%

SMILES: C#Cc1cccc(Nc2ncnc3cc(OCCOC)c(OCCOC)cc23)c1 [Erlotinib, [6,7-bis(2-methoxyethoxy)-4-quinazolin-4-yl]-(3-ethynylphenyl)amine]
- MTD at 2 weeks ([3]; BALB/c nu/nu, mouse, in vivo, oral, read-out: maximum tolerated dose (MTD)): 125 mg/kg/day
- lethality ([3]; mice bearing A431 tumors (data not shown)): lethal
- lethality ([3]; mice bearing LoVo tumors (data not shown)): lethal
- toxic deaths ([3]; mice bearing LoVo tumors): no deaths recorded
- toxic deaths ([3]; mice bearing LoVo tumors, listed as erlotinib): No toxic deaths were observed
- mean body weight maintained ([3]; mice bearing LoVo tumors, erlotinib 50-125 mg/kg/day, all groups): ≥ 80%
- tumor-growth inhibition ([4]; day 15): 85%
- tumor-growth inhibition ([4]; day 15, listed as erlotinib): 85%
- tumor-growth inhibition [5]: 20%
- tumor-growth inhibition [1, 7]: 71%
- tumor-growth inhibition [1, 8]: 71%
- inhibition of tumor growth ([1]; single-agent erlotinib 75 mg/kg (data not shown)): 45%
- antitumor activity ([2]; LoVo dose-response study, erlotinib 50 mg/kg orally once daily for 2 weeks): did not show significant antitumor activity
- tumor inhibition rate ([2]; LoVo dose-response study, erlotinib 100 mg/kg orally once daily): 62%
- tumor inhibition rate ([2]; LoVo dose-response study, erlotinib 125 mg/kg orally once daily): 85%
- tumor-growth inhibition [2, 7]: 74%
- tumor-growth inhibition [2, 8]: 74%
- tumor-growth inhibition [6]: 46%
